Test results: PubChem BioAssay AID248 (DTP/NCI, 2004)
Inconclusive results and toxic doses are left out.

Tested on: L1210 leukemia ip in BDF1 mice, survival T/C
Experiment: NCI In Vivo Anticancer Drug Screen. Data for tumor model L1210 Leukemia (intraperitoneal) in B6D2F1 (BDF1) mice
Settings: endpoint: mean survival time, higher = longer survival
How it was run: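 Each compound was tested against a transplantable tumor grown in mice. The endpoint was survival, with treated animals benchmarked against vehicle controls as a simple ratio.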

[1] = dose: 100.0 mg/kg/injection, schedule: Q01DX001 (ip), vehicle: saline with Tween-80
[2] = dose: 200.0 mg/kg/injection, schedule: Q01DX001 (ip), vehicle: saline with Tween-80
[3] = dose: 400.0 mg/kg/injection, schedule: Q01DX001 (ip), vehicle: saline with Tween-80

## Cc1c2c(cc3c1CCCC3)CCCC2
[1]
  T/C: 93 % of control
[2]
  T/C: 93 % of control
[3]
  T/C: 92 % of control

## CC(=O)Nc1ccc(Cc2ccc(NC(C)=O)cc2N)c(N)c1
dose: 50.0 mg/kg/injection, schedule: Q01DX001 (ip), vehicle: saline
  T/C: 96 % of control
dose: 100.0 mg/kg/injection, schedule: Q01DX001 (ip), vehicle: saline
  T/C: 98 % of control
dose: 200.0 mg/kg/injection, schedule: Q01DX001 (ip), vehicle: saline
  T/C: 104 % of control
dose: 400.0 mg/kg/injection, schedule: Q01DX001 (ip), vehicle: saline
  T/C: 92 % of control

## CCCCCCCCCCCCNC1=C(Cl)C(=O)c2ccccc2C1=O
dose: 1.0 mg/kg/injection, schedule: Q01DX Z (ip), vehicle: methylcellulose (MC)
  T/C: 94 % of control
dose: 2.2 mg/kg/injection, schedule: Q01DX Z (ip), vehicle: methylcellulose (MC)
  T/C: 89 % of control

## C(CCCCCC1CCCC2CCCCC12)CCCCC1CCCC2CCCCC12 (stereo not given)
[1]
  T/C: 98 % of control
[2]
  T/C: 98 % of control
[3]
  T/C: 98 % of control

## CCC1C2CC3C4N(C)c5ccccc5C45CC(C2C5O)N3C1O (stereo not given)
dose: 50.0 mg/kg/injection, schedule: Q01DX009 (ip), vehicle: saline with Tween-80
  T/C: 100 % of control
dose: 100.0 mg/kg/injection, schedule: Q01DX009 (ip), vehicle: saline with Tween-80
  T/C: 103 % of control

## CCOC(=O)CCC(NC(=O)c1ccc(N(C)Cc2cnc3nc(NC(C)=O)cc(NC(C)=O)c3n2)cc1)C(=O)OCC (stereo not given)
dose: 100.0 mg/kg/injection, schedule: Q01DX001 (ip), vehicle: other
  T/C: 102 % of control
dose: 200.0 mg/kg/injection, schedule: Q01DX001 (ip), vehicle: other
  T/C: 93 % of control
dose: 400.0 mg/kg/injection, schedule: Q01DX001 (ip), vehicle: other
  T/C: 95 % of control

## CCOC(=O)c1cnc(SC)nc1N(CC)c1ccccc1
dose: 100.0 mg/kg/injection, schedule: Q01DX009 (ip), vehicle: gum acacia
  T/C: 105 % of control
dose: 100.0 mg/kg/injection, schedule: Q04DX003 (ip), vehicle: gum acacia
  T/C: 102 % of control
dose: 200.0 mg/kg/injection, schedule: Q01DX009 (ip), vehicle: gum acacia
  T/C: 100 % of control
dose: 200.0 mg/kg/injection, schedule: Q04DX003 (ip), vehicle: gum acacia
  T/C: 102 % of control
dose: 400.0 mg/kg/injection, schedule: Q01DX009 (ip), vehicle: gum acacia
  T/C: 102 % of control
dose: 400.0 mg/kg/injection, schedule: Q04DX003 (ip), vehicle: gum acacia
  T/C: 102 % of control

## O=S1(=O)CCCCO1
dose: 25.0 mg/kg/injection, schedule: Q01DX009 (ip), vehicle: saline
  T/C: 97 % of control
dose: 25.0 mg/kg/injection, schedule: Q04DX003 (ip), vehicle: saline
  T/C: 102 % of control
dose: 50.0 mg/kg/injection, schedule: Q01DX009 (ip), vehicle: saline
  T/C: 101 % of control
dose: 50.0 mg/kg/injection, schedule: Q04DX003 (ip), vehicle: saline
  T/C: 102 % of control
dose: 100.0 mg/kg/injection, schedule: Q01DX009 (ip), vehicle: saline
  T/C: 89 % of control
dose: 100.0 mg/kg/injection, schedule: Q04DX003 (ip), vehicle: saline
  T/C: 98 % of control

## NC(N)=NCC(CCN1CCCCC1)c1cccc2ccccc12 (stereo not given)
dose: 5.0 mg/kg/injection, schedule: Q01DX009 (ip), vehicle: saline
  T/C: 105 % of control
dose: 10.0 mg/kg/injection, schedule: Q01DX009 (ip), vehicle: saline
  T/C: 100 % of control
dose: 12.5 mg/kg/injection, schedule: Q04DX002 (ip), vehicle: saline
  T/C: 93 % of control
dose: 20.0 mg/kg/injection, schedule: Q01DX009 (ip), vehicle: saline
  T/C: 106 % of control
dose: 25.0 mg/kg/injection, schedule: Q04DX002 (ip), vehicle: saline
  T/C: 93 % of control

## CN(C)/N=N/c1nc(Cc2ccccc2)[nH]c1C(N)=O
dose: 100.0 mg/kg/injection, schedule: Q01DX009 (ip), vehicle: Klucel (hydroxypropylcellulose) (HPC)
  T/C: 108 % of control
dose: 177.0 mg/kg/injection, schedule: Q01DX009 (ip), vehicle: Klucel (hydroxypropylcellulose) (HPC)
  T/C: 116 % of control
dose: 200.0 mg/kg/injection, schedule: Q01DX009 (ip), vehicle: Klucel (hydroxypropylcellulose) (HPC)
  T/C: 112 % of control
dose: 266.0 mg/kg/injection, schedule: Q01DX009 (ip), vehicle: Klucel (hydroxypropylcellulose) (HPC)
  T/C: 122 % of control
dose: 266.0 mg/kg/injection, schedule: Q04DX003 (ip), vehicle: Klucel (hydroxypropylcellulose) (HPC)
  T/C: 109 % of control
dose: 400.0 mg/kg/injection, schedule: Q01DX009 (ip), vehicle: Klucel (hydroxypropylcellulose) (HPC)
  T/C: 155 % of control
dose: 400.0 mg/kg/injection, schedule: Q04DX003 (ip), vehicle: Klucel (hydroxypropylcellulose) (HPC)
  T/C: 109 % of control
dose: 600.0 mg/kg/injection, schedule: Q04DX003 (ip), vehicle: Klucel (hydroxypropylcellulose) (HPC)
  T/C: 106 % of control

## CC(C)CC(CC(C)C)=NO
dose: 100.0 mg/kg/injection, schedule: Q01DX001 (ip), vehicle: carboxymethylcellulose (CMC)
  T/C: 104 % of control
dose: 200.0 mg/kg/injection, schedule: Q01DX001 (ip), vehicle: carboxymethylcellulose (CMC)
  T/C: 101 % of control
dose: 400.0 mg/kg/injection, schedule: Q01DX001 (ip), vehicle: carboxymethylcellulose (CMC)
  T/C: 103 % of control
